Data published in patent US10106551B2, “Monothiol mucolytic agents” (PARION SCIENCES, INC., priority 2015, dated 2018).
Structures can show the parent of a compound that is named as a salt.

Tests used:
Format in all cases: biochemical
[1] = Pro-Drug DTNB assay with or without esterase; settings: for Reduction Without Esterase / Reduction With Esterase: 22.5 μM prodrug, 100 μM DTNB; for Reduction Without Esterase: pH 7.5, no enzyme; for Reduction With Esterase: pH 7.5, porcine liver esterase
Experimental: The present invention provides a series of mucolytic pro-drugs (see R^6=other than H) that are activated by common enzymes that are present in the extracellular milieu (e.g., nucelotidases, phosphatases, and esterases). As a proof-of-concept, the reducing kinetics of the pro-drug compound 46 in the presence or absence of an activating esterase were tested.
This assay was designed to determine whether prodrug caps added on to our monothiol mucolytic compounds can be cleaved from the molecule. If so, the outcome would be an “active” compound that is able to reduce the S—S bond in DTNB. Similar to the activity concentration version of the DTNB assay described above, monothiol prodrugs were mixed at a final concentration of 22.5 μM with excess DTNB (100 μM final) in 1 mL 50 mM Tris-HCl buffer (pH 7.5) and maximum Abs412 was measured. In the absence of a purified hydrolytic enzyme (e.g. porcine liver esterase; Sigma), the amount of DTNB cleavage observed is an indicator for stability of the cap on the prodrug compound (i.e. if the prodrug remains intact in solution the Abs412=0). Next, 5 uL of esterase (bought as an ammonium sulfate suspension that is subsequently centrifuged to isolate the esterase and then dissolved in reaction buffer prior to assaying) is combined with excess DTNB (100 μM final) and 22.5 μM pro-drug in 1 mL 50 mM Tris-HCl buffer (pH 7.5). Cleavage of the prodrug cap can be visualized in real time via DTNB cleavage at Abs412 by the esterase-liberated monothiol molecule.

Muc5B = target: T1, Muc5B (Homo sapiens, UniProt Q9HC84); experiment: Mucin agarose gel western blot (saliva / mucus samples); settings: for MUC5B reduction: human mucus samples
T1 construct: Various mucin-containing substrates (e.g. saliva, harvested HBE mucus, and disease sputum) treated with our monothiol mucolytic compounds; from tissue; host or cells: saliva; harvested HBE mucus; disease sputum
Experimental: Various mucin-containing substrates (e.g. saliva, harvested HBE mucus, and disease sputum) treated with our monothiol mucolytic compounds are quenched upon completion of the treatment period with a 10-fold excess of N-ethylmaleimide in order to alkylate any remaining active compound and to prevent further mucin reduction. A 10× concentrated sample loading buffer is diluted into each sample (1×TAE/5% glycerol/0.1% SDS/Bromophenol Blue). Samples ([…]) were analyzed by electrophoresis on 0.9% agarose gels using a buffer system consisting of 1×TAE/0.1% SDS. The agarose gel was soaked for 15 min in 4×SSC (0.6 M NaCl, 60 mM Tri-sodium citrate dehydrate) containing 10 mM DTT before transferring the samples from the gel onto a nitrocellulose membrane by vacuum blotter. Unreduced and reduced Muc5B were visualized on a LiCor Odyssey imaging detection system using a polyclonal antibody directed towards Muc5B.

[2] = DTNB assay: rate of S-S bond reduction; settings: pH 6; 22.5 μM reducing agent, 45 μM DTNB, 50 mM Tris-HCl
Text: Thiol-containing compounds, such as the monothiol mucolytic agents described in this patent, can react with DTNB (5,5-Dithiobis(2-nitrobenzoic acid)) resulting in the cleavage of its single S—S bond. The DTNB assay serves a dual purpose in our analysis of monothiol compounds, as it can (1) be used to determine the “active concentration” of the mucolytic compounds (what amount of the compound in a reaction is able to cleave S—S bonds) and (2) to assess the rate that the compound can cleave S—S bonds. When cleaved, the resulting compound, NTB (2-nitro-5-thiobenzoate), is a colored product that is measured spectrophotometrically at an absorbance of 412 nm (Abs412). Using the molar extinction coefficient of NTB and measured maximum Abs412, the molar amount of DTNB that reacted with our mucolytic agents can be calculated. Monothiol mucolytic compounds react at a 1:1 stoichiometric ratio with DTNB (i.e. 1 mole of NTB is produced when 1 mole of DTNB is reacted with 1 mole of a monothiol reducing agent). To define the activity concentration of a compound, a final concentration of 22.5 μM mucolytic reducing agent was combined with an excess of DTNB (100 μM) in 1 mL 50 mM Tris-HCl buffer (pH 7.5). Maximum Abs412 was measured and then utilized to calculate the activity concentration. If observed activity concentrations differed from expected activity concentrations by more than 5%, the amount of the compound added to each reaction was accordingly adjusted to kinetically test the reducing rate in the next step. To determine rate of mucolytic reducing activity, 22.5 μM active reducing agent is combined with 45 μM DTNB in 1 mL 50 mM Tris-HCl buffer over a pH range (6.0-7.5). Abs412 is recorded in real time upon addition of the compound and rates were calculated using 2nd order kinetic parameters.

Compound | DTNB reduction rate [2] [M⁻¹ s⁻¹] | Reduction Without Esterase [1] | Reduction With Esterase [1] | also measured
Cl.OC[C@@H](O)[C@@H](O)[C@H](O)[C@@H](O)CN(CCCCCCOc1ccc(CS)cc1)C[C@H](O)[C@@H](O)[C@H](O)[C@H](O)CO [Compound 47, (2R,2′R,3R,3′R,4R,4′R,5S,5′S)-6,6′-((6-(4-(mercaptomethyl)phenoxy)hexyl)azanediyl)bis(hexane-1,2,3,4,5-pentaol) Hydrochloride] | 211.3 |  |  | time to fully reduce all available disulfides ([1]; parent molecule, same conditions as pro-drug test): < 10 s; reducing capacity relative to 76 (Muc5B) (Muc5B; FIG. 3): retain the reducing capacity of 76; MUC5B reduction (Muc5B): reduce MUC5B
Cl.OC[C@@H](O)[C@@H](O)[C@H](O)[C@H](O)CN(CCOc1ccc(CS)cc1)C[C@@H](O)[C@@H](O)[C@H](O)[C@H](O)CO [Compound 58, (2R,2′R,3R,3′R,4R,4′R,5R,5′R)-6,6′-((2-(4-(mercaptomethyl)phenoxy)ethyl)azanediyl)bis(hexane-1,2,3,4,5-pentaol) Hydrochloride] | 258.31 |  |  | 
CC(C)C(=O)SCc1cccc(OCCN(C[C@H](O)[C@@H](O)[C@H](O)[C@H](O)CO)C[C@H](O)[C@@H](O)[C@H](O)[C@H](O)CO)c1 [Compound 14, S-3-(2-(bis((2S,3R,4R,5R)-2,3,4,5,6-entahydroxyhexyl)amino)ethoxy)benzyl 2-methylpropanethioate Hydrochloride] |  | No | Yes | 
CC(C)C(=O)SCc1cccc(OCCN(C[C@@H](O)[C@@H](O)[C@H](O)[C@H](O)CO)C[C@@H](O)[C@@H](O)[C@H](O)[C@H](O)CO)c1.Cl [Compound 15a, S-3-(2-(bis((2R,3R,4R,5R)-2,3,4,5,6-pentahydroxyhexyl)amino)ethoxy)benzyl 2-methylpropanethioate Hydrochloride] |  | No | Yes | 
NCCCCCCOc1ccc(CS)cc1 [Compound 48] | 190.8 |  |  | 
Cl.OC[C@@H](O)[C@@H](O)[C@H](O)[C@@H](O)CN(CCOc1cccc(CS)c1)C[C@H](O)[C@@H](O)[C@H](O)[C@H](O)CO [Compound 19, (2R,2′R,3R,3′R,4R,4′R,5S,5′S)-6,6′-((2-(3-(mercaptomethyl)phenoxy)ethyl)azanediyl)bis(hexane-1,2,3,4,5-pentaol) Hydrochloride] | 182.52 |  |  | 
Cl.O=C(SCc1cccc(OCCN(C[C@@H](O)[C@@H](O)[C@H](O)[C@H](O)CO)C[C@@H](O)[C@@H](O)[C@H](O)[C@H](O)CO)c1)c1ccco1 [Compound 10, S-3-(2-(bis((2R,3R,4R,5R)-2,3,4,5,6-pentahydroxyhexyl)amino)ethoxy)benzylfuran-2-carbothioate Hydrochloride] |  | No | Yes | 
CCC(=O)SCc1cccc(OCCN(C[C@H](O)[C@@H](O)[C@H](O)[C@H](O)CO)C[C@H](O)[C@@H](O)[C@H](O)[C@H](O)CO)c1.Cl [Compound 24, S-3-(2-(bis((2S,3R,4R,5R)-2,3,4,5,6-pentahydroxyhexyl)amino)ethoxy)benzyl Propanethioate Hydrochloride] |  | No | Yes | 
CO[C@@H]1OC(CS)[C@H](O)C(O)C1O (some centres unmarked) [compound 95, reference compound] |  |  |  | Muc5b reduction (Muc5B; FIG. 4, 30 mM): partial Muc5b reduction
Cl.O=C(SCc1cccc(OCCN(C[C@H](O)[C@@H](O)[C@H](O)[C@H](O)CO)C[C@H](O)[C@@H](O)[C@H](O)[C@H](O)CO)c1)c1ccco1 [Compound 9, S-3-(2-(bis((2S,3R,4R,5R)-2,3,4,5,6-pentahydroxyhexyl)amino)ethoxy)benzyl furan-2-carbothioate Hydrochloride] |  | No | Yes | 
Cl.OC[C@@H](O)[C@@H](O)[C@H](O)[C@H](O)CN(CCOc1cccc(CS)c1)C[C@@H](O)[C@@H](O)[C@H](O)[C@H](O)CO [Compound 20, (2R,2′R,3R,3′R,4R,4′R,5R,5′R)-6,6′-((2-(3-(mercaptomethyl)phenoxy)ethyl)azanediyl)bis(hexane-1,2,3,4,5-pentaol) Hydrochloride] | 307.08 |  |  | 
CC(=O)SCc1cccc(OCCN(C[C@@H](O)[C@@H](O)[C@H](O)[C@H](O)CO)C[C@@H](O)[C@@H](O)[C@H](O)[C@H](O)CO)c1 [Compound 18, S-3-(2-(bis((2R,3R,4R,5R)-2,3,4,5,6-pentahydroxyhexyl)amino)ethoxy)benzyl Ethanethioate] |  | No | Yes | 
CC(=O)SCc1cccc(OCCN(C[C@H](O)[C@@H](O)[C@H](O)[C@H](O)CO)C[C@H](O)[C@@H](O)[C@H](O)[C@H](O)CO)c1.Cl [Compound 17, S-3-(2-(bis((2S,3R,4R,5R)-2,3,4,5,6-pentahydroxyhexyl)amino)ethoxy)benzyl Ethanethioate Hydrochloride] |  | No | Yes | 
CC(=O)SCc1ccc(OCCCCCCN(C[C@H](O)[C@@H](O)[C@H](O)[C@H](O)CO)C[C@H](O)[C@@H](O)[C@H](O)[C@H](O)CO)cc1.Cl [Compound 46, S-4-((6-(bis((2S,3R,4R,5R)-2,3,4,5,6-pentahydroxyhexyl)amino)hexyl)oxy)benzyl Ethanethioate Hydrochloride] |  | No | Yes | reduction of disulfide bonds by pro-drug alone ([1]; absence of activating esterase): does not reduce disulfide; reaction rates on addition of activating enzyme ([1]; presence of activating esterase): concentration dependent increase in reaction rates; MUC5B reduction (Muc5B): reduce MUC5B
CC(C)C(=O)SCc1ccc(OCCN(C[C@@H](O)[C@@H](O)[C@H](O)[C@H](O)CO)C[C@@H](O)[C@@H](O)[C@H](O)[C@H](O)CO)cc1.Cl [Compound 59, S-4-(2-(bis((2R,3R,4R,5R)-2,3,4,5,6-pentahydroxyhexyl)amino)ethoxy)benzyl 2-methylpropanethioate Hydrochloride] |  | No | Yes | 
CCC(=O)SCc1cccc(OCCN(C[C@@H](O)[C@@H](O)[C@H](O)[C@H](O)CO)C[C@@H](O)[C@@H](O)[C@H](O)[C@H](O)CO)c1.Cl [Compound 25, S-3-(2-(bis((2R,3R,4R,5R)-2,3,4,5,6-pentahydroxyhexyl)amino)ethoxy)benzyl Propanethioate Hydrochloride] |  | No | Yes | 
